Counter-ions that a name gives are not always drawn.
Columns and labels:
[1] = target: T1, cloned human 5-HT1A receptors (Homo sapiens, UniProt P08908); test: Inhibition of 3H-5-CT binding to human 5-HT1A receptors; details: cloned human 5-HT1A receptors in HeLa cells (HA7); for inhibition at 0.1 µM: at 100 nM
T1 construct: expressed in transfected cells; host or cells: HeLa cells (HA7)
T1 sequence (P08908 1-422): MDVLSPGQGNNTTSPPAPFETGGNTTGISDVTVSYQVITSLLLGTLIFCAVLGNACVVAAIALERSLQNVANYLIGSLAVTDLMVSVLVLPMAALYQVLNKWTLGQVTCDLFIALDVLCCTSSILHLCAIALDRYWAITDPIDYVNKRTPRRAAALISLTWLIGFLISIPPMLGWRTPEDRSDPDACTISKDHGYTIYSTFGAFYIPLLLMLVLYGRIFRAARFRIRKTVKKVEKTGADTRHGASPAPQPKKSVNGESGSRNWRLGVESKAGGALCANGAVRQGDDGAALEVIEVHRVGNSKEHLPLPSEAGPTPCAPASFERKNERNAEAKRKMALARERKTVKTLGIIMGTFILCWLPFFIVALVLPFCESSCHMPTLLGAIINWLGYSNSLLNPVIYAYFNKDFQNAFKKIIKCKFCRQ
In short: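 Cloned human 5-HT1A receptors stably expressed in transfected HeLa cells (HA7); 40 μg cell homogenate incubated 15 min at 37° C in 50 mM Tris pH 7.7 with 3H-5-CT. Non-specific binding defined with 10 μM metergoline; bound radioligand separated by rapid GF/B filtration and counted.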

[2] = target: T2, human cloned dopamine D4.2 receptors (Homo sapiens, UniProt P21917, DEL265-296); test: Inhibition of the binding of 3H-YM-09151-2 to human dopamine D4 receptors; details: at 50 nM; human cloned dopamine D4.2 receptors in CHO-cells
T2 construct: expressed in transfected cells; host or cells: CHO cells
T2 sequence (P21917 with tags, fused parts or gaps DEL265-296): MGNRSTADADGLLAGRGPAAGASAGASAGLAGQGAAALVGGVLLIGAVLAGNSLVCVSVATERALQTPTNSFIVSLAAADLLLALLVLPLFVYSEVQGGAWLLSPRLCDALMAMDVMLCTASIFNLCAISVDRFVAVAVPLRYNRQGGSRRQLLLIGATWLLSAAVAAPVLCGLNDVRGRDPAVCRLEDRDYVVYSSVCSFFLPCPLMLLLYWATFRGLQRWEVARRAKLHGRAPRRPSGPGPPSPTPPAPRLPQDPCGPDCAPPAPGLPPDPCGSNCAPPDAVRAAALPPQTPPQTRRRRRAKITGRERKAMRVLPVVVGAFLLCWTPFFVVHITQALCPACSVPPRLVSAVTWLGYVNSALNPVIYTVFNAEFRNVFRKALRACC
In short: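 Radioligand displacement of [3H]YM-09151-2 (0.06 nM) from membranes of CHO cells expressing cloned human D4.2 receptors, measured in vitro.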

With `Fc1cc(F)c(OCCCN2CCN(c3cccc4c3OCCO4)CC2)c(F)c1` (as salt: hydrochloride) [Compound 1c, 1-(2,3-Dihydro-benzo[1,4]dioxin-5-yl)-4-[3-(2,4,6-trifluoro-phenoxy)-propyl]-piperazine] the melting point was 210 to 220 °C.
Compound `Fc1ccc(SCCCN2CCN(c3cccc4ccsc34)CC2)c(Cl)c1` (as salt: hydrochloride) [Compound 2e, 1-Benzo[b]thiophen-7-yl-4-[3-(2-chloro-4-fluoro-phenylsulfanyl)-propyl]-piperazine] has a melting point of 216 to 219 °C.
Compound `Fc1ccc(OCCCCN2CCN(c3cccc4ccsc34)CC2)c(Cl)c1` (as salt: hydrochloride) [Compound 2f, 1-Benzo[b]thiophen-7-yl-4-[4-(2-chloro-4-fluoro-phenoxy)-butyl]-piperazine] has a melting point of 193 to 195 °C.
`Clc1cccc(Cl)c1OCCCN1CCN(c2cccc3c2OCCO3)CC1` (as salt: oxalate) [Compound 1b, 1-[3-(2,6-Dichloro-phenoxy)-propyl]-4-(2,3-dihydro-benzo[1,4]dioxin-5-yl)-piperazine] showed a melting point of 179 to 181 °C.
`COc1cc(F)ccc1OCCCN1CCN(c2cccc3c2OCCO3)CC1` (as salt: oxalate) [Compound 1d, 1-(2,3-Dihydro-benzo[1,4]dioxin-5-yl)-4-[3-(4-fluoro-2-methoxy-phenoxy)-propyl]-piperazine] showed a melting point of 141 to 142 °C.
`Cc1cc(F)ccc1OCCCN1CCN(c2cccc3c2OCCO3)CC1` (as salt: oxalate) [Compound 1e, 1-(2,3-Dihydro-benzo[1,4]dioxin-5-yl)-4-[3-(4-fluoro-2-methyl-phenoxy)-propyl]-piperazine] gave a melting point of 139 to 150 °C.
Work on `FC(F)(F)c1ccc(OCCCN2CCN(c3cccc4c3OCCO4)CC2)cc1` (as salt: oxalate) [Compound 2b, 1-(2,3-Dihydro-benzo[1,4]dioxin-5-yl)-4-[3-(4-trifluoromethyl-phenoxy)-propyl]-piperazine] yielded a melting point of 148 to 150 °C.
`Fc1ccccc1OCCCN1CCN(c2cccc3c2OCCO3)CC1` (as salt: oxalate) [Compound 2c, 1-(2,3-Dihydro-benzo[1,4]dioxin-5-yl)-4-[3-(2-fluoro-phenoxy)-propyl]-piperazine] gave a melting point of 167 to 169 °C.
Work on `Clc1ccccc1SCCN1CCN(c2cccc3c2OCCO3)CC1` [Compound 7av, 1-[2-(2-Chloro-phenylsulfanyl)-ethyl]-4-(2,3-dihydro-benzo[1,4]dioxin-5-yl)-piperazine] yielded an inhibition at 0.1 µM [1] of 90% and an inhibition at 0.05 µM [2] of 75%.
Work on `Fc1ccccc1SCCN1CCN(c2cccc3c2OCCO3)CC1` [Compound 7aw, 1-(2,3-Dihydro-benzo[1,4]dioxin-5-yl)-4-[2-(2-fluoro-phenylsulfanyl)-ethyl]-piperazine] yielded an inhibition at 0.1 µM [1] of 74% and an inhibition at 0.05 µM [2] of 92%.
With `CCc1ccccc1SCCCN1CCN(c2cccc3c2OCCO3)CC1` [Compound 7ax, 1-(2,3-Dihydro-benzo[1,4]dioxin-5-yl)-4-[3-(2-ethyl-phenylsulfanyl)-propyl]-piperazine] the IC50 [1] was 9.2 nM and the inhibition at 0.05 µM [2] was 100%.
In the case of `Clc1ccc(Cl)c(SCCCN2CCN(c3cccc4c3OCCO4)CC2)c1` [Compound 7ay, 1-[3-(2,5-Dichloro-phenylsulfanyl)-propyl]-4-(2,3-dihydro-benzo[1,4]dioxin-5-yl)-piperazine], the IC50 [1] is reported as 2 nM and the inhibition at 0.05 µM [2] is reported as 102%.
With `Clc1cccc(SCCCN2CCN(c3cccc4c3OCCO4)CC2)c1` [Compound 7az, 1-[3-(3-Chloro-phenylsulfanyl)-propyl]-4-(2,3-dihydro-benzo[1,4]dioxin-5-yl)-piperazine] the inhibition at 0.1 µM [1] was 100% and the inhibition at 0.05 µM [2] was 92%.
Work on `Fc1ccccc1SCCCN1CCN(c2cccc3c2OCCO3)CC1` [Compound 7ba, 1-(2,3-Dihydro-benzo[1,4]dioxin-5-yl)-4-[3-(2-fluoro-phenylsulfanyl)-propyl]-piperazine] yielded an inhibition at 0.1 µM [1] of 97% and an inhibition at 0.05 µM [2] of 84%.
`N#Cc1ccc(OCCCCN2CCN(c3cccc4c3OCCO4)CC2)c(Cl)c1` [Compound 7bb, 3-Chloro-4-{4-[4-(2,3-dihydro-benzo[1,4]dioxin-5-yl)-piperazin-1-yl]-butoxy}-benzonitrile] showed an inhibition at 0.1 µM [1] of 101% and an inhibition at 0.05 µM [2] of 94%.
`Cc1ccccc1SCCCCN1CCN(c2cccc3c2OCCO3)CC1` [Compound 7bc, 1-(2,3-Dihydro-benzo[1,4]dioxin-5-yl)-4-(4-o-tolylsulfanyl-butyl)-piperazine] gave an inhibition at 0.1 µM [1] of 82% and an inhibition at 0.05 µM [2] of 96%.
Work on `Clc1ccc(Cl)c(SCCCCN2CCN(c3cccc4c3OCCO4)CC2)c1` [Compound 7bd, 1-[4-(2,5-Dichloro-phenylsulfanyl)-butyl]-4-(2,3-dihydro-benzo[1,4]dioxin-5-yl)-piperazine] yielded an inhibition at 0.1 µM [1] of 84% and an inhibition at 0.05 µM [2] of 102%.
`Clc1ccccc1SCCCCN1CCN(c2cccc3c2OCCO3)CC1` [Compound 7be, 1-[4-(2-Chloro-phenylsulfanyl)-butyl]-4-(2,3-dihydro-benzo[1,4]dioxin-5-yl)-piperazine] gave an inhibition at 0.1 µM [1] of 102% and an inhibition at 0.05 µM [2] of 102%.
For `Fc1ccccc1SCCCCN1CCN(c2cccc3c2OCCO3)CC1` [Compound 7bf, 1-(2,3-Dihydro-benzo[1,4]dioxin-5-yl)-4-[4-(2-fluoro-phenylsulfanyl)-butyl]-piperazine], the inhibition at 0.1 µM [1] was 101% and the inhibition at 0.05 µM [2] was 91%.
In the case of `COc1ccc(SCCN2CCN(c3cccc4c3OCCO4)CC2)cc1OC` [Compound 7bg, 1-(2,3-Dihydro-benzo[1,4]dioxin-5-yl)-4-[2-(3,4-dimethoxy-phenylsulfanyl)-ethyl]-piperazine], the inhibition at 0.1 µM [1] is reported as 81% and the inhibition at 0.05 µM [2] is reported as 64%.
With `N#Cc1cccc(OCCCCN2CCN(c3cccc4c3OCCO4)CC2)c1` [Compound 7bh, 3-{4-[4-(2,3-Dihydro-benzo[1,4]dioxin-5-yl)-piperazin-1-yl]-butoxy}-benzonitrile] the inhibition at 0.1 µM [1] was 95% and the inhibition at 0.05 µM [2] was 84%.
Compound `Fc1ccc(SCCCCN2CCN(c3cccc4c3OCCO4)CC2)c(Cl)c1` [Compound 7bi, 1-[4-(2-Chloro-4-fluoro-phenylsulfanyl)-butyl]-4-(2,3-dihydrobenzo[1,4]dioxin-5-yl)-piperazine] has an inhibition at 0.1 µM [1] of 96% and an inhibition at 0.05 µM [2] of 101%.
Compound `FC(F)(F)Oc1ccc(SCCCN2CCN(c3cccc4c3OCCO4)CC2)cc1` [Compound 7bj, 1-(2,3-Dihydro-benzo[1,4]dioxin-5-yl)-4-[3-(4-trifluoromethoxy-phenylsulfanyl)-propyl]-piperazine] has an inhibition at 0.1 µM [1] of 106% and an inhibition at 0.05 µM [2] of 92%.
`COc1ccc(OC)c(SCCCN2CCN(c3cccc4c3OCCO4)CC2)c1` [Compound 7bk, 1-(2,3-Dihydro-benzo[1,4]dioxin-5-yl)-4-[3-(2,5-dimethoxy-phenylsulfanyl)-propyl]-piperazine] showed an inhibition at 0.1 µM [1] of 91% and an inhibition at 0.05 µM [2] of 84%.
With `Brc1cccc(SCCCN2CCN(c3cccc4c3OCCO4)CC2)c1` [Compound 7bl, 1-(2,3-Dihydro-benzo[1,4]dioxin-5-yl)-4-[3-(3-bromo-phenylsulfanyl)-propyl]-piperazine] the inhibition at 0.1 µM [1] was 95% and the inhibition at 0.05 µM [2] was 102%.
In the case of `COc1ccccc1SCCCCN1CCN(c2cccc3c2OCCO3)CC1` [Compound 7bm, 1-(2,3-Dihydro-benzo[1,4]dioxin-5-yl)-4-[4-(2-methoxy-phenylsulfanyl)-butyl]-piperazine], the inhibition at 0.1 µM [1] is reported as 95% and the inhibition at 0.05 µM [2] is reported as 83%.
Compound `CC(C)c1ccccc1SCCCCN1CCN(c2cccc3c2OCCO3)CC1` [Compound 7bn, 1-(2,3-Dihydro-benzo[1,4]dioxin-5-yl)-4-[4-(2-isopropyl-phenylsulfanyl)-butyl]-piperazine] has an inhibition at 0.1 µM [1] of 93% and an inhibition at 0.05 µM [2] of 93%.
Compound `Cc1ccccc1SCCN1CCN(c2cccc3c2OCCO3)CC1` [Compound 7bo, 1-(2,3-Dihydro-benzo[1,4]dioxin-5-yl)-4-(2-o-tolylsulfanyl-ethyl)-piperazine] has an inhibition at 0.1 µM [1] of 91% and an inhibition at 0.05 µM [2] of 102%.
With `C=CCc1ccccc1OCCCCN1CCN(c2cccc3c2OCCO3)CC1` [Compound 7bp, 1-[4-(2-Allyl-phenoxy)-butyl]-4-(2,3-dihydro-benzo[1,4]dioxin-5-yl)-piperazine] the inhibition at 0.1 µM [1] was 92% and the inhibition at 0.05 µM [2] was 99%.
